The results in this text go back to patent publication US20250296971A1, “GASTRIC INHIBITORY PEPTIDE RECEPTOR LIGANDS” (priority 2021, published 2025).

*1 amine or outer side, *2 acyl side, *3 side chain or, on linkers, in order; H or OH if unused. Where a SMILES comes first, the peptide text is derived from it. Bridges are numbered along the chain shown (N, C = ends). [ ]: non-standard residue; d: D form. The star is where a group is joined. ξ: configuration not given here. X5 = NC(=O)[C@H](CCCCNC(=O)CN1CCN(CC(=O)O)CCN(CC(=O)O)CCN(CC(=O)O)CC1)NC(=O)CCC(=O)NCCCOCCOCCOCCCN*; X3 = O=C(O)CN1CCN(CC(=O)O)CCN(CC(=O)NCCCOCCOCCOCCCN*)CCN(CC(=O)O)CC1; Propanoyl(3-(1-naphthyl)) = O=C(CCc1cccc2ccccc12)*; Trp(5-Cl) = N[C@@H](Cc1c[nH]c2ccc(Cl)cc12)C(=O)O; Trp(5-OH) = N[C@@H](Cc1c[nH]c2ccc(O)cc12)C(=O)O; Trp(7-aza) = N[C@@H](Cc1c[nH]c2ncccc12)C(=O)O; NMeW = CN[C@@H](Cc1c[nH]c2ccccc12)C(=O)O; 1Nal = N[C@@H](Cc1cccc2ccccc12)C(=O)O; mXylylene = c1cc(C[*:1])cc(C[*:2])c1; X7 = c1cc(CSCCN[*:2])cc(C[*:1])c1; Suc = O=C(CCC(=O)[*:2])[*:1]; Aib = CC(C)(N)C(=O)O; ξP = O=C(O)C1CCCN1 Where only a bound is given, the exact number is not on record here.

The target of the experiment is T1, GIPR (CHO-K1-hGIPR cells) (Homo sapiens, UniProt P48546).
T1 construct: host or cells: CHO-K1
T1 sequence (P48546 22-466): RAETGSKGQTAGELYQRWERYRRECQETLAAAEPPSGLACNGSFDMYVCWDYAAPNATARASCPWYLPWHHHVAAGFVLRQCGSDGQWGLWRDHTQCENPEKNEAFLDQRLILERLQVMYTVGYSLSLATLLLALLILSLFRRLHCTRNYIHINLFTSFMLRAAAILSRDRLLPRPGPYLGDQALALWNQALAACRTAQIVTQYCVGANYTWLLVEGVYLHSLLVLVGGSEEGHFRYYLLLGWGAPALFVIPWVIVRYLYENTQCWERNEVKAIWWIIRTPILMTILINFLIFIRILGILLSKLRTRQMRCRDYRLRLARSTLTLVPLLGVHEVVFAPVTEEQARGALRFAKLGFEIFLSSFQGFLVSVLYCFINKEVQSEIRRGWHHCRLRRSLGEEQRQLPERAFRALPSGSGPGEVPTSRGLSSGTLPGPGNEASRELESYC
In words: FACS binding assay. The settings on record: competition with 20 nM GIP-057, 4° C. for 1 hour, read-out: pIC50 Category (converted). In a few lines:
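Read-out: flow cytometric median fluorescence intensity, APC/Cy5 channel, plotted vs peptide conc.; 4PL fit → EC50/pEC50 or IC50/pIC50. Cells: CHO-K1-hGIPR, Accutase-detached, 500.000/mL in PBS + 1% FCS. Detection: APC-streptavidin 1 μg/mL, 30 min, on ice.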
On to `CC[C@H](C)[C@@H]1NC(=O)[C@H](CC(C)C)NC(=O)C(C)(C)NC(=O)[C@@H](NC(=O)[C@H](CC(C)C)NC(=O)[C@H](CCC(=O)O)NC(=O)[C@@H]2CCCN2C(=O)[C@H](Cc2c[nH]c3ccccc23)NC(=O)[C@H](Cc2c[nH]c3ccccc23)N(C)C(=O)[C@H](CC(=O)O)NC(C)=O)CSCc2cccc(c2)CSC[C@@H](C(=O)NCCCOCCOCCOCCCNC(=O)CCC(=O)N[C@@H](CCCCNC(=O)CN2CCN(CC(=O)O)CCN(CC(=O)O)CCN(CC(=O)O)CC2)C(N)=O)NC1=O` [GIP-297, Ac-Asp-Nmw-Trp-Pro-Glu-Leu-[Cys(3MeBn)-Aib-Leu-Ile-Cys]-Ttds-Lys(DO TA)-NH2] (Ac-D[NMeW]WPELC[Aib]LIC-X5; linker 7-11 via mXylylene), for which the IC50 was above 1 µM. Consider `CC[C@H](C)[C@@H]1NC(=O)[C@H](CC(C)C)NC(=O)C(C)(C)NC(=O)[C@@H](NC(=O)[C@H](CC(C)C)NC(=O)[C@H](CCC(=O)O)NC(=O)[C@@H]2CCCN2C(=O)[C@H](Cc2cccc3ccccc23)NC(C)=O)CSCc2cccc(c2)CSC[C@@H](C(=O)NCCCOCCOCCOCCCNC(=O)CCC(=O)N[C@@H](CCCCNC(=O)CN2CCN(CC(=O)O)CCN(CC(=O)O)CCN(CC(=O)O)CC2)C(N)=O)NC1=O` [GIP-298, Ac-1Ni-Pro-Glu-Leu-[Cys(3MeBn)-Aib-Leu-Ile-Cys]-Ttds-Lys(DOTA)-NH2] (Ac-[1Nal]PELC[Aib]LIC-X5; linker 5-9 via mXylylene), for which the IC50 was above 1 µM. The figure for `CC[C@H](C)[C@@H]1NC(=O)[C@H](CC(C)C)NC(=O)C(C)(C)NC(=O)[C@@H](NC(=O)[C@H](CC(C)C)NC(=O)[C@H](CCC(=O)O)NC(=O)[C@@H]2CCCN2C(=O)CCc2cccc3ccccc23)CSCc2cccc(c2)CSC[C@@H](C(=O)NCCCOCCOCCOCCCNC(=O)CCC(=O)N[C@@H](CCCCNC(=O)CN2CCN(CC(=O)O)CCN(CC(=O)O)CCN(CC(=O)O)CC2)C(N)=O)NC1=O` [GIP-299, Nph1p-Pro-Glu-Leu-[Cys(3MeBn)-Aib-Leu-Ile-Cys]-Ttds-Lys(DOTA)-NH2] ({Propanoyl(3-(1-naphthyl))}-PELC[Aib]LIC-X5; linker 4-8 via mXylylene) is above 1 µM. Regarding `CC(=O)N[C@@H](CC(=O)O)C(=O)N[C@@H](Cc1c[nH]c2ccccc12)C(=O)N[C@@H](Cc1cccc2ccccc12)C(=O)N1CCC[C@H]1C(=O)N[C@@H](CCC(=O)O)C(=O)N[C@H](CC(C)C)C(=O)N[C@H]1CSCc2cccc(c2)CSC[C@@H](C(=O)NCCCOCCOCCOCCCNC(=O)CCC(=O)N[C@@H](CCCCNC(=O)CN2CCN(CC(=O)O)CCN(CC(=O)O)CCN(CC(=O)O)CC2)C(N)=O)NC(=O)[C@@H](C(C)C)NC(=O)[C@H](CC(C)C)NC(=O)[C@H](C)NC1=O` [GIP-300, Ac-Asp-Trp-1Ni-Pro-Glu-leu-[Cys(3MeBn)-Ala-Leu-val-Cys]-Ttds-Lys(DOTA)-NH2] (Ac-DW[1Nal]PE[dL]CAL[dV]C-X5; linker 7-11 via mXylylene), the IC50 is above 1 µM.

In the case of `CC[C@H](C)[C@@H]1NC(=O)[C@H](CC(C)C)NC(=O)C(C)(C)NC(=O)[C@@H](NC(=O)[C@H](CC(C)C)NC(=O)[C@H](CCC(=O)O)NC(=O)[C@@H]2CCCN2C(=O)[C@H](Cc2cccc3ccccc23)NC(=O)[C@H](Cc2c[nH]c3ccccc23)NC(C)=O)CSCc2cccc(c2)CSC[C@@H](C(=O)NCCCOCCOCCOCCCNC(=O)CCC(=O)N[C@@H](CCCCNC(=O)CN2CCN(CC(=O)O)CCN(CC(=O)O)CCN(CC(=O)O)CC2)C(N)=O)NC1=O` [GIP-301, Ac-Trp-1Ni-Pro-Glu-Leu-[Cys(3MeBn)-Aib-Leu-Ile-Cys]-Ttds-Lys(DOTA)-NH2] (Ac-W[1Nal]PELC[Aib]LIC-X5; linker 6-10 via mXylylene), the IC50 was above 1 µM. The figure for `CC[C@H](C)[C@@H]1NC(=O)[C@H](CC(C)C)NC(=O)C(C)(C)NC(=O)[C@@H](NC(=O)[C@@H](CC(C)C)NC(=O)[C@H](CCC(=O)O)NC(=O)[C@@H]2CCCN2C(=O)[C@H](Cc2c[nH]c3ccc(O)cc23)NC(=O)[C@H](Cc2c[nH]c3ccccc23)NC(=O)[C@H](CC(=O)O)NC(C)=O)CSCc2cccc(c2)CSC[C@@H](C(=O)NCCCOCCOCCOCCCNC(=O)CCC(=O)N[C@@H](CCCCNC(=O)CN2CCN(CC(=O)O)CCN(CC(=O)O)CCN(CC(=O)O)CC2)C(N)=O)NC1=O` [GIP-302, Ac-Asp-Trp-Hyw-Pro-Glu-leu-[Cys(3MeBn)-Aib-Leu-Ile-Cys]-Ttds-Lys(DOTA)-NH2] (Ac-DW[Trp(5-OH)]PE[dL]C[Aib]LIC-X5; linker 7-11 via mXylylene) is above 1 µM.

With `CC[C@H](C)[C@@H]1NC(=O)[C@H](CC(C)C)NC(=O)C(C)(C)NC(=O)[C@@H](NC(=O)[C@@H](CC(C)C)NC(=O)[C@H](CCC(=O)O)NC(=O)[C@@H]2CCCN2C(=O)[C@H](Cc2cccc3ccccc23)NC(=O)[C@H](Cc2c[nH]c3ncccc23)NC(=O)[C@H](CC(=O)O)NC(C)=O)CSCc2cccc(c2)CSC[C@@H](C(=O)NCCCOCCOCCOCCCNC(=O)CCC(=O)N[C@@H](CCCCNC(=O)CN2CCN(CC(=O)O)CCN(CC(=O)O)CCN(CC(=O)O)CC2)C(N)=O)NC1=O` [GIP-303, Ac-Asp-7Nw-1Ni-Pro-Glu-leu-[Cys(3MeBn)-Aib-Leu-Ile-Cys]-Ttds-Lys(DOTA)-NH2] (Ac-D[Trp(7-aza)][1Nal]PE[dL]C[Aib]LIC-X5; linker 7-11 via mXylylene), the IC50 is above 1 µM. The figure for `CC[C@H](C)[C@@H]1NC(=O)[C@H](CC(C)C)NC(=O)[C@@H](NC(=O)[C@H](CCC(=O)O)NC(=O)[C@@H](CC(C)C)NC(=O)[C@H](Cc2c[nH]c3ccc(Cl)cc23)NC(=O)[C@@H]2CCCN2C(=O)[C@H](CC(=O)O)NC(=O)[C@H](Cc2c[nH]c3ccccc23)NC(=O)CCC(=O)NCCCOCCOCCOCCCNC(=O)CN2CCN(CC(=O)O)CCN(CC(=O)O)CCN(CC(=O)O)CC2)CSCc2cccc(c2)CSCCNC(=O)C(C)(C)NC1=O` [GIP-304, DOTA-Ttds-Trp-Asp-Pro-5Clw-leu-Glu-[Cys(3MeBn)-Leu-Ile-Aib-AET]] ({X3-Suc}-WDP[Trp(5-Cl)][dL]ECLI[Aib]; linker 7-C via X7) is above 1 µM.

Consider `CC[C@H](C)[C@@H]1NC(=O)C(C)(C)NC(=O)[C@H](CCC(=O)O)NC(=O)[C@@H](NC(=O)[C@H](CC(C)C)NC(=O)[C@H](Cc2c[nH]c3ccccc23)NC(=O)[C@H](Cc2c[nH]c3ccc(Cl)cc23)NC(=O)[C@@H]2CCCN2C(=O)[C@H](CC(=O)O)NC(=O)[C@@H](CC(C)C)NC(=O)CCC(=O)NCCCOCCOCCOCCCNC(=O)CN2CCN(CC(=O)O)CCN(CC(=O)O)CCN(CC(=O)O)CC2)CSCc2cccc(c2)CSCCNC1=O` [GIP-305, DOTA-Ttds-leu-Asp-Pro-5Clw-Trp-Leu-[Cys(3MeBn)-Glu-Aib-Ile-AET]] ({X3-Suc}-[dL]DP[Trp(5-Cl)]WLCE[Aib]I; linker 7-C via X7), for which the IC50 was above 1 µM.

For the compound `CC[C@H](C)[C@@H]1NC(=O)[C@@H](NC(=O)[C@H](Cc2c[nH]c3ccccc23)NC(=O)[C@H](CC(=O)O)NC(=O)[C@@H](CC(C)C)NC(=O)[C@H](CCC(=O)O)NC(=O)C2CCCN2C(=O)[C@H](Cc2c[nH]c3ccc(Cl)cc23)NC(=O)CCC(=O)NCCCOCCOCCOCCCNC(=O)CN2CCN(CC(=O)O)CCN(CC(=O)O)CCN(CC(=O)O)CC2)CSCc2cccc(c2)CSCCNC(=O)C(C)(C)NC(=O)[C@H](CC(C)C)NC1=O` (stereo partly drawn) [GIP-306, DOTA-Ttds-5Clw-Pro-Glu-leu-Asp-Trp-[Cys(3MeBn)-Ile-Leu-Aib-AET]] ({X3-Suc}-[Trp(5-Cl)][ξP]E[dL]DWCIL[Aib]; linker 7-C via X7), the IC50 is above 1 µM. In the case of `CC[C@H](C)[C@@H]1NC(=O)[C@H](CC(C)C)NC(=O)[C@H](C)NC(=O)[C@@H](NC(=O)[C@H](CC(C)C)NC(=O)[C@H](CCC(=O)O)NC(=O)[C@@H]2CCCN2C(=O)[C@H](Cc2c[nH]c3ccccc23)NC(=O)[C@H](Cc2c[nH]c3ccccc23)NC(=O)[C@@H](CC(=O)O)NC(=O)[C@H](Cc2ccc(O)cc2)NC(=O)[C@@H](N)CCSC)CSCc2cccc(c2)CSC[C@@H](C(N)=O)NC1=O` [GIP-307, H-Met-Tyr-asp-Trp-Trp-Pro-Glu-Leu-[Cys(3MeBn)-Ala-Leu-Ile-Cys]-NH2] (H-MY[dD]WWPELCALIC-NH2; linker 9-13 via mXylylene), the IC50 is 0.1 to 0.794 µM. For `CC[C@H](C)[C@@H]1NC(=O)[C@H](CC(C)C)NC(=O)[C@H](C)NC(=O)[C@@H](NC(=O)[C@H](CC(C)C)NC(=O)[C@H](CCC(=O)O)NC(=O)[C@@H]2CCCN2C(=O)[C@H](Cc2c[nH]c3ccccc23)NC(=O)[C@@H](Cc2c[nH]c3ccccc23)NC(=O)[C@H](CC(=O)O)NC(=O)[C@H](Cc2ccc(O)cc2)NC(=O)[C@@H](N)CCSC)CSCc2cccc(c2)CSC[C@@H](C(N)=O)NC1=O` [GIP-308, H-Met-Tyr-Asp-trp-Trp-Pro-Glu-Leu-[Cys(3MeBn)-Ala-Leu-Ile-Cys]-NH2] (H-MYD[dW]WPELCALIC-NH2; linker 9-13 via mXylylene), the IC50 is 0.1 to 0.794 µM.

As to `CC[C@H](C)[C@@H]1NC(=O)[C@H](CC(C)C)NC(=O)[C@H](C)NC(=O)[C@H](NC(=O)[C@H](CC(C)C)NC(=O)[C@H](CCC(=O)O)NC(=O)[C@@H]2CCCN2C(=O)[C@H](Cc2c[nH]c3ccccc23)NC(=O)[C@H](Cc2c[nH]c3ccccc23)NC(=O)[C@H](CC(=O)O)NC(=O)[C@H](Cc2ccc(O)cc2)NC(=O)[C@@H](N)CCSC)CSCc2cccc(c2)CSC[C@@H](C(N)=O)NC1=O` [GIP-309] (H-MYDWWPEL[dC]ALIC-NH2; linker 9-13 via mXylylene), the IC50 was 0.1 to 0.794 µM.
